Measurements from ChEMBL document CHEMBL1130934, “Enantioselective synthesis and pharmacology of 11-hydroxy-(1'S,2'R)-dimethylheptyl-delta 8-THC” (Bioorg Med Chem Lett, 1998).

Tests used:
Cannabinoid receptor 1 [1] = molecular target: T1, Cannabinoid receptor 1 (Rattus norvegicus, UniProt P20272); test: Binding affinity for the Cannabinoid receptor using [3H]CP-55940 as radioligand
Mus musculus [2] = organism: Mus musculus; test: Compound was evaluated in mouse model for cannabimimetic activity, expressed as as effective dose for antinociception (TF); type: functional
Mus musculus [3] = organism: Mus musculus; test: Compound was evaluated in mouse model for cannabimimetic activity, expressed as as effective dose for hypothermia (rectal temperature, RT); type: functional
Mus musculus [4] = organism: Mus musculus; test: Compound was evaluated in mouse model for cannabimimetic activity, expressed as effective dose for spontaneous activity(SA); type: functional
Cannabinoid receptor 1 [5] = molecular target: T1, Cannabinoid receptor 1; test: Binding affinity for the cannabinoid brain receptor (CB1) using [3H]CP-55940

T1 sequence (P20272 whole entry): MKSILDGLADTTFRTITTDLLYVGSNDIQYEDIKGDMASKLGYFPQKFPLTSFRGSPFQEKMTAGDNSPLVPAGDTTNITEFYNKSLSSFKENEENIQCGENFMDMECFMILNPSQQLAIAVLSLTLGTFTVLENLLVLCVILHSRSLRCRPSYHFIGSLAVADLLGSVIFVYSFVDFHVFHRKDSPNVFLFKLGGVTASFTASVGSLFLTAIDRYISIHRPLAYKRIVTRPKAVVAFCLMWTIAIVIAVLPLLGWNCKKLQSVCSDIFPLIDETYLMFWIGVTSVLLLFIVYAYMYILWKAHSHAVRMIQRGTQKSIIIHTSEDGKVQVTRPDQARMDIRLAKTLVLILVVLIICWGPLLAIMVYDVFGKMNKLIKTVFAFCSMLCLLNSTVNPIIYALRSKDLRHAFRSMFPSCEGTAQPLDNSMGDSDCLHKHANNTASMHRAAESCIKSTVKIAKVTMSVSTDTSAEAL

## CCCCCCC(C)(C)c1cc(O)c2c(c1)OC(C)(C)[C@@H]1CC=C(CO)C[C@@H]21
Cannabinoid receptor 1 [1]
  Ki: 0.73 nM
Mus musculus [2]
  ED50: 0.02 µmol/kg
Mus musculus [3]
  ED50: 0.05 µmol/kg
Mus musculus [4]
  ED50: 0.01 µmol/kg

## CCCCCCC(C)(C)c1cc(O)c2c(c1)OC(C)(C)[C@@H]1CC=C(C)C[C@@H]21
Cannabinoid receptor 1 [5]
  Ki: 0.77 nM
Mus musculus [2]
  ED50: 0.14 µmol/kg
Mus musculus [3]
  ED50: 0.15 µmol/kg
Mus musculus [4]
  ED50: 0.27 µmol/kg

## CCCCC[C@@H](C)[C@H](C)c1cc(O)c2c(c1)OC(C)(C)[C@@H]1CC=C(C)C[C@@H]21
Cannabinoid receptor 1 [5]
  Ki: 0.46 nM
Mus musculus [2]
  ED50: 0.03 µmol/kg
Mus musculus [3]
  ED50: 0.07 µmol/kg
Mus musculus [4]
  ED50: 0.03 µmol/kg

## CCCCC[C@@H](C)[C@H](C)c1cc(O)c2c(c1)OC(C)(C)[C@@H]1CC=C(CO)C[C@@H]21
Cannabinoid receptor 1 [5]
  Ki: 0.49 nM
Mus musculus [2]
  ED50: 0.03 µmol/kg
Mus musculus [3]
  ED50: 0.02 µmol/kg
Mus musculus [4]
  ED50: 0.01 µmol/kg
